Assay results published in ChEMBL document CHEMBL1136271, “Design and synthesis of potent, orally bioavailable dihydroquinazolinone inhibitors of p38 MAP kinase” (Bioorg Med Chem Lett, 2003).

Key:
Type in all cases: ADME, organism-based
[1] = Plasma clearance in rat; settings: read-out: Clp
[2] = Volume distribution in rat; settings: in vivo
[3] = Half-life in rat; settings: in vivo
[4] = Oral bioavailability in rat; settings: in vivo
[5] = Area under curve was determined in rat after PO administration; set-up: concentration or dose not given beside the values; settings: in vivo

clearance [1] [mL/min/kg]	Vd [2] [L/kg]	half-life [3] [h]	bioavailability [4] [%]	AUC [5] [µM·h]	Structure (SMILES)
24.2	2.5	1.6	11.6	0.14	O=C1NCc2c(-c3ccc(F)cc3Cl)cc(C3CCN(CC4CCC4)CC3)cc2N1c1c(Cl)cccc1Cl
35.2	6	2.2	67.7	0.58	CC(C)(C)N1CCC(c2cc(-c3ccc(F)cc3Cl)c3c(c2)N(c2c(Cl)cccc2Cl)C(=O)NC3)CC1
31.1	4.7	2	38	0.36	CC(C1CC1)N1CCC(c2cc(-c3ccc(F)cc3Cl)c3c(c2)N(c2c(Cl)cccc2Cl)C(=O)NC3)CC1 (configuration not stated)
58.6	13.6	3.3	4.3	0.02	O=C1NCc2c(-c3ccc(F)cc3F)cc(C3CCNCC3)cc2N1c1c(Cl)cccc1Cl
94.7	12.8	2.3	1.5		O=C(c1cc(-c2ccc(F)cc2F)c2c(c1)N(c1c(Cl)cccc1Cl)C(=O)NC2)N1CCNCC1
140	18.6	2.8	15.7	0.04	O=C1NCc2c(-c3ccc(F)cc3Cl)cc(CN3CCNCC3)cc2N1c1c(Cl)cccc1Cl
84.8	12.2	1.9	16	0.06	CC(C)N1CCC(c2cc(-c3ccc(F)cc3Cl)c3c(c2)N(c2c(Cl)cccc2Cl)C(=O)NC3)CC1
72.3	7.8	2	0		O=C1NCc2c(-c3ccc(F)cc3Cl)cc(C3CCNCC3)cc2N1c1c(Cl)cccc1Cl
50.9	6.3	1.9	22.6	0.15	O=C1NCc2c(-c3ccc(F)cc3Cl)cc(C3CCN(CC4CC4)CC3)cc2N1c1c(Cl)cccc1Cl
53.7	6.6	1.7	24.7	0.14	O=C1NCc2c(-c3ccc(F)cc3Cl)cc(C3CCN(C4CCC4)CC3)cc2N1c1c(Cl)cccc1Cl
116	21	3	6.3	0.02	O=C1NCc2c(-c3ccccc3Cl)cc(OC3CCNCC3)cc2N1c1c(Cl)cccc1Cl
56.3	7.5	2.2	20	0.11	CCN1CCC(c2cc(-c3ccc(F)cc3Cl)c3c(c2)N(c2c(Cl)cccc2Cl)C(=O)NC3)CC1
34.4	4.3	1.6	22.7	0.22	O=C1NCc2c(-c3ccccc3Cl)cc(N3CCNCC3)cc2N1c1c(Cl)cccc1Cl
51.7	8.1	2.5	59.3	0.39	O=C1NCc2c(-c3ccc(F)cc3Cl)cc(C3CCN(C4CC4)CC3)cc2N1c1c(Cl)cccc1Cl
49.8	5.3	1.5	9.2	0.06	CN1CCC(c2cc(-c3ccc(F)cc3Cl)c3c(c2)N(c2c(Cl)cccc2Cl)C(=O)NC3)CC1
181	21.4	2.5	0		O=C1NCc2c(-c3ccccc3Cl)cc(C3CCNCC3)cc2N1c1c(Cl)cccc1Cl
